Assay results: US10105357B2, “Indication of antibiotic drugs for preparation of cancer inhibition pharmaceutical composition” (LAUNX BIOMEDICAL CO., LTD., priority 2014, dated 2018)
Structures can show the parent of a compound that is named as a salt. Where two headings read alike, the source gives them in different places.

Legend:
Assay type in all cases: cell-based, human
[1] = test system: HI650 (Lung Adenocarcinoma); experiment: Cell viability analysis, lung cancer HI650; conditions: for viability at 10 µM: Homo sapiens, NCI-H1650, 72 h
[2] = test system: A549 (Lung Adenocarcinoma); experiment: Cell viability analysis, lung cancer A549; conditions: for viability at 10 µM: Homo sapiens, A549, 72 h
[3] = test system: AGS (Gastric Adenocarcinoma); experiment: Cell viability analysis, gastric cancer AGS; conditions: 72 h; for viability at 10 µM: Homo sapiens
[4] = test system: MKN-45 (Gastric Adenocarcinoma); experiment: Cell viability analysis, gastric cancer MKN-45; conditions: for viability at 10 µM: Homo sapiens, MKN-45, 72 h
[5] = test system: HepG2 (Hepatocellular Carcinoma); experiment: Cell viability analysis, hepatic cancer HepG2; conditions: for viability at 10 µM: Homo sapiens, HepG2, 72 h
[6] = test system: LoVo (Colorectal Adenocarcinoma); experiment: Cell viability analysis, colon cancer LoVo; conditions: 72 h; for viability at 10 µM: Homo sapiens, LoVo, read-out: cell viability (survival rate), LoVo, drug 10 μM, 72 hours, WST-1, OD450 nm
[7] = test system: A375 (Amelanotic Melanoma); experiment: Cell viability analysis, skin cancer A375; conditions: for viability at 10 µM: Homo sapiens, A-375, 72 h
[8] = test system: HeLa (Cervix Adenocarcinoma); experiment: Cell viability analysis, cervical cancer HeLa; conditions: 72 h; for viability at 10 µM: Homo sapiens, HeLa
[9] = test system: PC3 (p53−) (Prostate Adenocarcinoma); experiment: Cell viability analysis, prostate cancer PC3; conditions: 72 h; for viability at 10 µM: Homo sapiens
[10] = test system: TSGH-8301 (Urinary Bladder Carcinoma); experiment: Cell viability analysis, bladder cancer TSGH-8301; conditions: 72 h; for viability at 10 µM: Homo sapiens
[11] = test system: MCF7 (Mammary Gland, Adenocarcinoma); experiment: Cell viability analysis, breast cancer MCF7; conditions: for viability at 10 µM: Homo sapiens, MCF7, 72 h
[12] = test system: HL-60 (Acute Promyelocytic Leukemia); experiment: Cell viability analysis, leukemia HL-60; conditions: for viability at 10 µM: Homo sapiens, HL-60, 72 h
[13] = drug 10 μM, 72 hours, WST-1, OD450 nm, read-out: cell viability (survival rate), H1650
[14] = drug 10 μM, 72 hours, WST-1, OD450 nm, read-out: cell viability (survival rate), A549
[15] = drug 10 μM, 72 hours, WST-1, OD450 nm, read-out: cell viability (survival rate), AGS
[16] = drug 10 μM, 72 hours, WST-1, OD450 nm, read-out: cell viability (survival rate), MKN-45
[17] = drug 10 μM, 72 hours, WST-1, OD450 nm, read-out: cell viability (survival rate), HepG2
[18] = drug 10 μM, 72 hours, WST-1, OD450 nm, read-out: cell viability (survival rate), A375
[19] = drug 10 μM, 72 hours, WST-1, OD450 nm, read-out: cell viability (survival rate), HeLa
[20] = drug 10 μM, 72 hours, WST-1, OD450 nm, read-out: cell viability (survival rate), PC3
[21] = drug 10 μM, 72 hours, WST-1, OD450 nm, read-out: cell viability (survival rate), TSGH
[22] = drug 10 μM, 72 hours, WST-1, OD450 nm, read-out: cell viability (survival rate), MCF7
[23] = drug 10 μM, 72 hours, WST-1, OD450 nm, read-out: cell viability (survival rate), HL-60
[24] = read-out: cell viability (survival rate), H1650, drug 10 μM, 72 hours, WST-1, OD450 nm
[25] = read-out: cell viability (survival rate), A549, drug 10 μM, 72 hours, WST-1, OD450 nm
[26] = read-out: cell viability (survival rate), AGS, drug 10 μM, 72 hours, WST-1, OD450 nm
[27] = read-out: cell viability (survival rate), MKN-45, drug 10 μM, 72 hours, WST-1, OD450 nm
[28] = read-out: cell viability (survival rate), HepG2, drug 10 μM, 72 hours, WST-1, OD450 nm
[29] = read-out: cell viability (survival rate), A375, drug 10 μM, 72 hours, WST-1, OD450 nm
[30] = read-out: cell viability (survival rate), HeLa, drug 10 μM, 72 hours, WST-1, OD450 nm
[31] = read-out: cell viability (survival rate), PC3, drug 10 μM, 72 hours, WST-1, OD450 nm
[32] = read-out: cell viability (survival rate), TSGH, drug 10 μM, 72 hours, WST-1, OD450 nm
[33] = read-out: cell viability (survival rate), MCF7, drug 10 μM, 72 hours, WST-1, OD450 nm
[34] = read-out: cell viability (survival rate), HL-60, drug 10 μM, 72 hours, WST-1, OD450 nm

SMILES	viability at 10 µM [1, 13] [%]	viability at 10 µM [2, 14] [%]	viability at 10 µM [3, 15] [%]	viability at 10 µM [4, 16] [%]	viability at 10 µM [5, 17] [%]	viability at 10 µM [6] [%]	viability at 10 µM [7, 18] [%]	viability at 10 µM [8, 19] [%]	viability at 10 µM [9, 20] [%]	viability at 10 µM [1, 24] [%]	viability at 10 µM [2, 25] [%]	viability at 10 µM [3, 26] [%]	viability at 10 µM [4, 27] [%]	viability at 10 µM [5, 28] [%]	viability at 10 µM [7, 29] [%]	viability at 10 µM [8, 30] [%]	viability at 10 µM [9, 31] [%]	viability at 10 µM [10, 32] [%]	viability at 10 µM [11, 33] [%]	viability at 10 µM [12, 34] [%]	other results
CC(=O)[C@@]1(O)CC[C@H]2[C@@H]3CCC4=CC(=O)CCC4=C3[C@@H](c3ccc(N(C)C)cc3)C[C@@]21C [Ulipristal]	40.3	59.9	55.4	36.1	69	67.8	48.2	72.4	49.3	–	–	–	–	–	–	–	–	–	–	–	viability at 10 µM [10, 21]: 55.8%; viability at 10 µM [11, 22]: 65.4%; viability at 10 µM [12, 23]: 93.8%
Nc1ccn([C@@H]2CS[C@H](CO)O2)c(=O)n1 [Lamivudine (Epivir), Lamivudine]	–	–	–	–	–	71.3	–	–	–	54.1	75.2	44.7	47.7	108	95.8	86.4	110	71.1	83.2	119	–
CN(C/C=C/C#CC(C)(C)C)Cc1cccc2ccccc12 [Terbinafine (Lamisil, Terbinex), Terbinafine]	104	115	137	143	98.3	94	99.7	65.2	140	–	–	–	–	–	–	–	–	–	–	–	viability at 10 µM [10, 21]: 109%; viability at 10 µM [11, 22]: 104%; viability at 10 µM [12, 23]: 95.2%
CN(C)[C@@H]1C(O)=C(C(N)=O)C(=O)[C@@]2(O)C(O)=C3C(=O)c4c(O)cccc4[C@@](C)(O)[C@H]3[C@H](O)[C@@H]12 [Oxytetracycline (Terramycin), Oxytetracycline]	–	–	–	–	–	–	–	–	–	–	–	–	–	–	–	–	–	–	–	–	cell viability (survival rate), H1650 ([1]; human, 72 h, 10 µM): 70.1; cell viability (survival rate), A549 ([2]; human, 72 h, 10 µM): 42.3; cell viability (survival rate), AGS ([3]; human, 10 µM): 61.9; cell viability (survival rate), MKN-45 ([4]; human, 72 h, 10 µM): 56.7; cell viability (survival rate), HepG2 ([5]; human, 72 h, 10 µM): 88.4; cell viability (survival rate), LoVo ([6]; human, 10 µM): 86.6; cell viability (survival rate), A375 ([7]; human, 72 h, 10 µM): 51.2; cell viability (survival rate), HeLa ([8]; human, 10 µM): 51.2; cell viability (survival rate), PC3 ([9]; human, 10 µM): 70.8; cell viability (survival rate), TSGH ([10]; human, 10 µM): 73.8; cell viability (survival rate), MCF7 ([11]; human, 72 h, 10 µM): 38.9; cell viability (survival rate), HL-60 ([12]; human, 72 h, 10 µM): 97.9
NC(=O)c1cnccn1 [Pyrazinamide]	79.1	33.9	74.9	53.6	88.1	56.9	58.6	54.3	100	–	–	–	–	–	–	–	–	–	–	–	viability at 10 µM [10, 21]: 88.3%; viability at 10 µM [11, 22]: 40.9%; viability at 10 µM [12, 23]: 106%
CC[C@H]1OC(=O)[C@H](C)[C@@H](O[C@H]2C[C@@](C)(OC)[C@@H](O)[C@H](C)O2)[C@H](C)[C@@H](O[C@@H]2O[C@H](C)C[C@H](N(C)C)[C@H]2O)[C@](C)(O)C[C@@H](C)[C@@H]2N[C@@H](COCCOC)O[C@H]([C@H]2C)[C@]1(C)O [Dirithromycin]	–	–	–	–	–	83.7	–	–	–	65.5	64.8	63.2	106	90.6	83.7	91.9	77.1	77.2	62.6	90.2	–
Cc1ccccc1C(OCCN(C)C)c1ccccc1 (stereo not drawn) [Orphenadrine citrate (Norflex), Orphenadrine citrate]	–	–	–	–	–	45.6	–	–	–	99.6	21.8	82.9	102	97.8	89.2	67.9	41.6	53.4	35.9	92.9	–
C=CC1=C(C(=O)O)N2C(=O)[C@@H](NC(=O)/C(=N\O)c3csc(N)n3)[C@H]2SC1 [Cefdinir (Omnicef), Cefdinir]	–	–	–	–	–	111	–	–	–	93.6	97	79.1	70.5	106	92.5	86.4	135	35.6	55.1	104	–
C[C@H]1COc2c(N3CCN(C)CC3)c(F)cc3c(=O)c(C(=O)O)cn1c23 [Levofloxacin (Levaquin), Levofloxacin]	–	–	–	–	–	62.6	–	–	–	64.9	36.7	51.6	44.5	88.4	39.3	50.8	29.6	41.8	43.9	93	–
